Data set [1] can be described thus: Inhibition of dengue virus 2 NS2B-NS3 protease pre-incubated for 10 mins before Boc-Gly-Arg-Arg-peptidyl-4-methylcoumaryl-7-amide substrate addition and measured after 2 hrs by fluorescence based assay. Further details: species or system dengue virus type 2; call rule not given here.
Another data set concerns dengue virus type 2. Put plainly: Antiviral activity against dengue virus 2 infected in BHK21 cells assessed as inhibition of virus-induced cytopathic effect after 4 days by resazurin dye based method. It counts as functional, cell-based.
Data set [2] is described as follows: Toxicity in BHK21 cells assessed a reduction in cell viability after 4 days by resazurin dye based method. Also noted: species or system Mesocricetus auratus, BHK-21. The settings on record: hamster. For orientation: The colour change of resazurin is a common sign of viable cells or microbes.
The nature of data set [3]: Selectivity index, ratio of CC50 for toxicity in BHK21 cells to EC50 for antiviral activity against dengue virus 2 infected in BHK21 cells. It counts as cell-based. The settings on record: hamster, read-out: Ratio CC50/EC50.
Data set [4] is described as follows: Stability assessed as dengue virus 2 NS2B-NS3 protease-mediated compound degradation by measuring linear peptide with P1 C-terminus and P' N-terminus at 200 uM in presence of […] incubated for 0 to 22.5 hrs by LC-MS method. It counts as ADME. The settings on record: dengue virus type 2, 200 µM.
A short description of data set [5]: Stability assessed as dengue virus 2 NS2B-NS3 protease-mediated compound degradation at 200 uM in presence of […] incubated for 0 to 22.5 hrs by LC-MS method. The settings on record: dengue virus type 2, 200 µM. It counts as ADME.
The nature of data set [6]: Stability assessed as dengue virus 2 NS2B-NS3 protease-mediated compound degradation at 200 uM in presence of […] incubated for 22.5 hrs by LC-MS method. It counts as ADME. The settings on record: dengue virus type 2, 22.5 h.
A short description of data set [7]: Stability assessed as dengue virus 2 NS2B-NS3 protease-mediated compound degradation at 200 uM in presence of 100 nM enzyme incubated for 24 hrs by LC-MS method. It counts as ADME. The settings on record: dengue virus type 2, 24 h.
Setting [8] is: Dengue virus, BHK-21, 96 h, read-out: EC50.

For `N=C(N)NCCC[C@@H]1NC(=O)[C@H](CCCNC(=N)N)NC(=O)[C@@H](CCCNC(=N)N)NC(=O)[C@@H](Cc2ccc3ccccc3c2)NC(=O)[C@H](Cc2ccccc2)NC(=O)[C@H](CCc2ccccc2)NC(=O)[C@@H](Cc2ccc3ccccc3c2)NC(=O)[C@H](CCCCN)NC1=O`, in data set [1], it took 1.1 µM to reach half-maximal inhibition (IC50). Further, in the data set with dengue virus type 2 (setting [8]), the EC50 – broadly, the concentration needed to bring the measured effect to its halfway point – amounted to 2 µM. In addition, the midpoint of cytotoxicity in data set [2], the CC50 at 96 h, lay at 24 µM. Further, the selectivity ratio in data set [3] was more than 10.
In the case of `N=C(N)NCCC[C@@H]1NC(=O)[C@H](CCCNC(=N)N)NC(=O)[C@@H](CCCNC(=N)N)NC(=O)[C@@H](Cc2ccccc2)NC(=O)[C@H](Cc2cccc3ccccc23)NC(=O)[C@H](CCc2ccccc2)NC(=O)[C@H](CO)NC(=O)[C@H](CCCCN)NC1=O`, in data set [4], the Drug metabolism result was “Metabolite_Detected”. The Stability result in data set [5] is given as “Unstable”. Moreover, in data set [1], the IC50 (in general, the concentration needed to halve the response being measured) stood at 1.6 µM. Besides, the EC50 with dengue virus type 2 (setting [8]) was determined as 23.2 µM. The cytotoxic concentration (CC50) (in general, the concentration giving 50% cytotoxicity) at 96 h in data set [2] amounted to 233 µM.
In data set [1], `N=C(N)NCCC[C@@H]1NC(=O)[C@H](CCCCN)NC(=O)[C@H]2CCCN2C(=O)[C@@H](Cc2ccccc2)NC(=O)[C@H](CO)NC(=O)[C@H](Cc2ccc3ccccc3c2)NC(=O)[C@H](CO)NC(=O)[C@H](CCCCN)NC1=O` had an IC50 of 2.6 µM. Moreover, in the data set on dengue virus type 2 (setting [8]), the half-maximal effective concentration (EC50) turned out to be 306 µM. The same molecule registered a CC50 at 96 h in data set [2] of more than 400 µM.
The molecule `N=C(N)NCCC[C@@H]1NC(=O)[C@H](CCCNC(=N)N)NC(=O)[C@@H](CCCNC(=N)N)NC(=O)[C@@H](Cc2ccccc2)NC(=O)[C@H](Cc2ccc3ccccc3c2)NC(=O)[C@H](CCc2ccccc2)NC(=O)[C@H](CO)NC(=O)[C@H](CCCCN)NC1=O` came in with a 50% inhibitory concentration (IC50) in data set [1] of 1.5 µM. For the same molecule, the EC50 in the data set with dengue virus type 2 (setting [8]) amounted to 48.5 µM. The molecule also gave a CC50 at 96 h in data set [2] of 210 µM.
On the same counts, the results for `N=C(N)NCCC[C@@H]1NC(=O)[C@H](CCCNC(=N)N)NC(=O)[C@@H](CCCNC(=N)N)NC(=O)[C@@H](Cc2ccc3ccccc3c2)NC(=O)[C@H](Cc2ccccc2)NC(=O)[C@H](CCc2ccccc2)NC(=O)[C@@H](Cc2ccccc2)NC(=O)[C@H](CCCCN)NC1=O` are 1.7 µM, 4.6 µM and 86 µM.
`C[C@@H]1NC[C@H](CCCCN)NC(=O)[C@H](CCCNC(=N)N)NC(=O)[C@H](CCCNC(=N)N)NC(=O)[C@@H](CCCNC(=N)N)NC(=O)[C@@H](Cc2ccccc2)NC(=O)[C@H](Cc2cccc3ccccc23)NC(=O)[C@H](CCc2ccccc2)NC1=O` showed an IC50 in data set [1] of 2.1 µM. Moreover, the Stability entry in data set [6] is “Stable”. Moreover, the EC50 in the data set with dengue virus type 2 (setting [8]) was determined as 11.4 µM. Further, the CC50 at 96 h in data set [2] amounted to 129 µM.
With `N=C(N)NCCC[C@@H]1NC(=O)[C@H](CCCCN)NC(=O)[C@H]2CCCN2C(=O)[C@@H](Cc2ccccc2)NC(=O)[C@H](CO)NC(=O)[C@H](CCc2ccccc2)NC(=O)[C@H](CO)NC(=O)[C@H](CCCCN)NC1=O`, the Stability entry in data set [5] is “Unstable”. Also, the IC50 in data set [1] came to 0.95 µM. In the data set on dengue virus type 2, the EC50 entry is “Not Active”.
Consider `C[C@@H]1NC(=O)[C@H](CCCCN)NC(=O)[C@H](CCCNC(=N)N)NC(=O)[C@H](CCCNC(=N)N)NC(=O)[C@@H](CCCNC(=N)N)NC(=O)[C@@H](Cc2ccccc2)NC(=O)[C@H](Cc2cccc3ccccc23)NC(=O)[C@H](CCc2ccccc2)NC1=O`, for which the results for the Stability result in data set [5] and in data set [7] were “Unstable” and “Stable”, respectively. Also, the IC50 in data set [1] stood at 1.7 µM. Also, in the data set with dengue virus type 2 (setting [8]), the concentration giving a half-maximal response (EC50) was determined as 11.8 µM. Besides, the midpoint of cytotoxicity in data set [2], the CC50 at 96 h, lay at 134 µM.

Source of the values: ChEMBL document CHEMBL4033720, “Discovery of novel cyclic peptide inhibitors of dengue virus NS2B-NS3 protease with antiviral activity” (Bioorg Med Chem Lett, 2017).
